Source: patent US12404244B2, “Pan-KIT kinase inhibitor having quinoline structure and application thereof” (Tarapeutics Science Inc., priority 2018, dated 2025)
Where two headings read alike, the source gives them in different places.

Columns and labels:
Format in all cases: cell-based, mouse
[1] = test system: TEL-KIT-BaF3 (stably expressing KIT wild-type kinase); test: Proliferation of TEL-KIT-BaF3 cells (CCK-8); conditions: for GI50: Mus musculus, read-out: GI50 TEL-KIT-BaF3
From the text: (§1) Compounds as provided herein were further evaluated for their inhibitory effects on proliferation of cancer cells by testing their effects on growth of cancer cells. In this example the following cells were used: primary mouse B cells BaF3 (purchased from ATCC), GIST-T1 cells of the human gastrointestinal stromal tumor cell line (expressing wild-type KIT gene) (purchased from Cosmo Bio Co., Ltd. (Japan)). The present lab further constructed and used the following: mouse Tel-Kit-BaF3 (stably expressing KIT wild-type kinase), mouse Tel-Kit/T670I-BaF3 (stably expressing KIT T670I mutant kinase), mouse Tel-Kit/V559A-BaF3 (stably expressing KIT V559A mutant kinase), mouse Tel-Kit/V559D-BaF3 (stably expressing KIT V559D mutant kinase), mouse Tel-Kit/V559G-BaF3 (stably expressing KIT V559G mutant kinase), mouse Tel-Kit/V560D-BaF3 (stably expressing KIT V560D mutant kinase), mouse Tel-Kit/L576P-BaF3 (stably expressing KIT L576P mutant kinase), mouse Tel-Kit/V654A-BaF3 (stably expressing KIT V654A mutant kinase), mouse Tel-Kit/V654A/V559D-BaF3 (stably expressing KIT V654A V559D mutant kinase), mouse Tel-Kit/T670E-BaF3 (stably expressing KIT T670E mutant kinase), mouse Tel-Kit/T670I/V559D-BaF3 (stably expressing KIT T670I V559D mutant kinase), mouse Tel-Kit/S709F-BaF3 (stably expressing KIT S709F mutant kinase), mouse Tel-Kit/D816E-BaF3 (stably expressing KIT D816E mutant kinase), mouse Tel-Kit/D816H-BaF3 (stably expressing KIT D816H mutant kinase), mouse Tel-Kit/D820E-BaF3 (stably expressing KIT D820E mutant kinase), mouse Tel-Kit/D820G-BaF3 (stably expressing KIT D820G mutant kinase), mouse Tel-Kit/D820Y-BaF3 (stably expressing KIT D820Y mutant kinase), mouse Tel-Kit/N822K-BaF3 (stably expressing KIT N822K mutant kinase), mouse Tel-Kit/Y823D-BaF3 (stably expressing KIT Y823D mutant kinase), mouse Tel-Kit/A829P-BaF3 (stably expressing KIT A829P mutant kinase), GIST-T1-T670I cells of the human gastrointestinal stromal tumor cell line (expressing KIT-T670I mutant gene). The above cell lines were constructed by: amplifying respectively the sequences of human KIT and various mutant kinase regions of KIT via PCR, inserting the fragments respectively into MSCV-Puro vectors having a N-terminal TEL fragment and/or a NPM fragment and/or a TPR fragment (purchased from Clontech), transfecting mouse BaF3 cells with the vectors by means of retrovirus to obtain stably transfected cells, removing the growth factor IL-3, and thereby eventually obtaining cell lines that depend on the transferred protein KIT or various mutants of KIT. The GIST-T1-T670I (expressing C-KIT-T670I mutant gene) cell line was constructed by our laboratory as follows: designing sgRNA that targeted a region around T670 of the KIT gene with CRISPR Design Tool (website: crispr.mit.edu, Zhang Feng Lab), cloning it into pSpCas9(BB)-2A-Puro vector; co-transfecting cells with the resultant vector and a single-stranded oligonucleotide having T670I site mutation that is near to T670, subjecting the resultant to antibiotics screening, followed by dilution, and monocellular culture in a 96-well plate; validating the site T670 of the cells by sequence detection via Sanger sequencing.
(§2) The cells after incubation were detected using CCK-8 (purchased from MedChem Express, Shanghai, China) cell viability assay kit (CCK-8 may be reduced by dehydrogenase in living cells to a highly water-soluble yellow formazan product, and the amount of the resultant formazan is proportional to the number of living cells), the number of living cells were quantified with a microplate reader, and GI50 of the compounds and the control compounds were calculated (the results shown in Table 2 and Table 3).

BaF3 = test: Proliferation of parental BaF3 cells (CCK-8); conditions: for GI50: Mus musculus, read-out: GI50 BaF3
From the text: as §1, §2

TEL-KIT/T670I-BaF3 = test: Proliferation of TEL-KIT/T670I-BaF3 cells (CCK-8); conditions: for GI50: Mus musculus, read-out: GI50 TEL-KIT/T670I-BaF3
From the text: as §1

[2] = BaF3 parent cells, 72 hours, CCK-8

Row | GI50 ([1]; KIT wild-type, 72 hours, CCK-8) [nM] | GI50 (TEL-KIT/T670I-BaF3; 72 hours, CCK-8) [nM] | SMILES | GI50 (BaF3; [2]) [nM] | GI50 ([1]; 72 h) [nM] | GI50 (BaF3; BaF3, 72 h) [nM] | GI50 (TEL-KIT/T670I-BaF3; 72 h) [nM] | inhibitory effect against wild-type KIT [1] | inhibitory effect against mutant KIT-T670I (TEL-KIT/T670I-BaF3) | selectivity against BaF3 (BaF3; KIT and KIT-T670I relative to parent BaF3 cells)
1 | 68 | 15 | COc1cc2nccc(Oc3ccc(NC(=O)NCCCc4ccc(F)cc4)cc3)c2cc1OC [Example 32, 1-(4-((6,7-dimethoxyquinolin-4-yl)oxy)phenyl)-3-(3-(4-fluorophenyl)propyl)urea] | 3850 | – | – | – | – | – | –
2 | 97 | 16 | COc1cc2nccc(Oc3ccc(NC(=O)NCCCc4cccc(F)c4)cc3)c2cc1OC [Example 31, 1-(4-((6,7-dimethoxyquinolin-4-yl)oxy)phenyl)-3-(3-(3-fluorophenyl)propyl)urea] | 2480 | – | – | – | – | – | –
3 | – | – | COc1cc2nccc(Oc3ccc(NC(=O)Cc4cccc(C(F)(F)F)c4)cc3)c2cc1OC [Example 8, N-(4-((6,7-dimethoxyquinolin-4-yl)oxy)phenyl)-2-(3-(trifluoromethyl)phenyl)acetamide] | – | 20 | 1890 | 1 | – | – | –
4 | – | – | COc1cc2nccc(Oc3ccc(NC(=O)Cc4ccc(C)c(C)c4)cc3)c2cc1OC [Example 11, N-(4-((6,7-dimethoxyquinolin-4-yl)oxy)phenyl)-2-(3,4-dimethylphenyl)acetamide] | – | 27 | 6420 | 15 | – | – | –
5 | – | – | COc1cc2nccc(Oc3ccc(NC(=O)Cc4ccc(Cl)c(C(F)(F)F)c4)c(F)c3)c2cc1OC [Example 24, N-(2-fluoro-4-((6,7-dimethoxyquinolin-4-yl)oxy)phenyl)-2-(4-chloro-3-(trifluoromethyl)phenyl)acetamide] | – | 49 | 3210 | 18 | – | – | –
6 | – | – | COc1cc2nccc(Oc3ccc(NC(=O)Cc4ccccc4)cn3)c2cc1OC [Comparative Example 1, N-(6-((6,7-dimethoxyquinolin-4-yl)oxy)pyridin-3-yl)-2-phenylacetamide, reference compound] | – | > 10000 | > 10000 | > 10000 | no significant inhibitory effects | no significant inhibitory effects | –
7 | – | – | COc1cc2nccc(Oc3ccc(NC(=O)Cc4ccc(F)c(C(F)(F)F)c4)cc3)c2cc1OC [Example 13, N-(4-((6,7-dimethoxyquinolin-4-yl)oxy)phenyl)-2-(4-fluoro-3-(trifluoromethyl)phenyl)acetamide] | – | 24 | 1030 | 13 | – | – | –
8 | 2350 | 4610 | COc1cc2nccc(Oc3ccc(C(=O)NCc4cccc(C(F)(F)F)c4)cc3)c2cc1OC [Comparative Example 3, N-(3-(trifluoromethyl)benzyl)-4-((6,7-dimethoxyquinolin-4-yl)oxy)benzamide, reference compound] | ≥ 10000 | – | – | – | substantially vanished | substantially vanished | –
9 | – | – | COc1cc2nccc(Oc3ccc(NC(=O)Cc4ccc(Cl)c(C(F)(F)F)c4)cc3Cl)c2cc1OC [Example 38, N-(3-chloro-4-((6,7-dimethoxyquinolin-4-yl)oxy)phenyl)-2-(4-chloro-3-(trifluoromethyl)phenyl)acetamide] | – | 78 | 9450 | 56 | – | – | –
10 | 183 | 844 | COc1cccc(CC(=O)Nc2ccc(Oc3ncnc4cc(OC)c(OC)cc34)cc2)c1 [Comparative Example 4, N-(4-((6,7-dimethoxyquinazolin-4-yl)oxy)phenyl)-2-(3-methoxyphenyl)acetamide, reference compound] | 3120 | – | – | – | certain inhibitory activity but lower than that of the present invention compounds | certain inhibitory activity but lower than that of the present invention compounds | weaker selectivity against BaF3
11 | 110 | 10 | COc1cc2nccc(Oc3ccc(NC(=O)NCCCc4ccccc4)cc3)c2cc1OC [Example 30, 1-(4-((6,7-dimethoxyquinolin-4-yl)oxy)phenyl)-3-(3-phenylpropyl)urea] | 2910 | – | – | – | – | – | –
12 | – | – | COc1cc2nccc(Oc3ccc(NC(=O)Cc4ccc(C(F)(F)F)cc4)cc3)c2cc1OC [Example 9, N-(4-((6,7-dimethoxyquinolin-4-yl)oxy)phenyl)-2-(4-(trifluoromethyl)phenyl)acetamide] | – | 22 | 2160 | 11 | – | – | –
